Measured values: patent US20210053957A1, “HERBICIDAL COMPOUNDS” (SYNGENTA PARTICIPATIONS AG, priority 2018, published 2021)
Where a name gives a salt, the structure may show the parent alone.

How the values were obtained:
Assay in all cases: Post-emergence efficacy, glasshouse spray test
Format in all cases: in vivo
[1] = system: Chenopodium album (CHEAL); settings: Application Rate 500 g/Ha, evaluated after 13 days; for pest or weed control at 500 g/ha: Chenopodium album, post-emergence, 312 h, read-out: Control of weed species after post-emergence application, CHEAL (100=total damage to plant; 0=no damage to plant)
In short: (§1)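 Sow in standard soil; grow 14 d at 24/16° C, 14 h light, 65% humidity; spray aqueous dilution of IF50 formulation; return to glasshouse, water twice daily; score injury 0–100 at day 13.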

[2] = system: Digitaria sanguinalis (DIGSA); settings: Application Rate 500 g/Ha, evaluated after 13 days; for pest or weed control at 500 g/ha: Digitaria sanguinalis, post-emergence, 312 h, read-out: Control of weed species after post-emergence application, DIGSA (100=total damage to plant; 0=no damage to plant)
In short: as §1

Lolium perenne (LOLPE) = settings: Application Rate 500 g/Ha, evaluated after 13 days; for pest or weed control at 500 g/ha: Lolium perenne, post-emergence, 312 h, read-out: Control of weed species after post-emergence application, LOLPE (100=total damage to plant; 0=no damage to plant)
In short: as §1

[3] = system: Amaranthus palmeri (AMAPA); settings: Application Rate 500 g/Ha, evaluated after 13 days; for pest or weed control at 500 g/ha: Amaranthus palmeri, post-emergence, 312 h, read-out: Control of weed species after post-emergence application, AMAPA (100=total damage to plant; 0=no damage to plant)
In short: as §1

[4] = system: Echinochloa crus-galli (ECHCG); settings: Application Rate 500 g/Ha, evaluated after 13 days; for pest or weed control at 500 g/ha: Echinochloa crus-galli, post-emergence, 312 h, read-out: Control of weed species after post-emergence application, ECHCG (100=total damage to plant; 0=no damage to plant)
In short: as §1

Setaia fabei (SETFA) = settings: Application Rate 500 g/Ha, evaluated after 13 days; for pest or weed control at 500 g/ha: Setaria faberi, post-emergence, 312 h, read-out: Control of weed species after post-emergence application, SETFA (100=total damage to plant; 0=no damage to plant)
In short: as §1

[5] = system: Euphorbia heterophylla (EPHHL); settings: Application Rate 500 g/Ha, evaluated after 13 days; for pest or weed control at 500 g/ha: Euphorbia heterophylla, post-emergence, 312 h, read-out: Control of weed species after post-emergence application, EPHHL (100=total damage to plant; 0=no damage to plant)
In short: as §1

[6] = system: Ipomoea hederacea (IPOHE); settings: Application Rate 500 g/Ha, evaluated after 13 days; for pest or weed control at 500 g/ha: Ipomoea hederacea, post-emergence, 312 h, read-out: Control of weed species after post-emergence application, IPOHE (100=total damage to plant; 0=no damage to plant)
In short: as §1

Eleusine indica (ELEIN) = settings: Application Rate 500 g/Ha, evaluated after 13 days; for pest or weed control at 500 g/ha: Eleusine indica, post-emergence, 312 h, read-out: Control of weed species after post-emergence application, ELEIN (100=total damage to plant; 0=no damage to plant)
In short: as §1

Row | SMILES | Control of weed species after post-emergence application, CHEAL (100=total damage to plant; 0=no damage to plant) [1] | Control of weed species after post-emergence application, DIGSA (100=total damage to plant; 0=no damage to plant) [2] | Control of weed species after post-emergence application, LOLPE (100=total damage to plant; 0=no damage to plant) (Lolium perenne (LOLPE)) | Control of weed species after post-emergence application, AMAPA (100=total damage to plant; 0=no damage to plant) [3] | Control of weed species after post-emergence application, ECHCG (100=total damage to plant; 0=no damage to plant) [4] | Control of weed species after post-emergence application, SETFA (100=total damage to plant; 0=no damage to plant) (Setaia fabei (SETFA)) | Control of weed species after post-emergence application, EPHHL (100=total damage to plant; 0=no damage to plant) [5] | Control of weed species after post-emergence application, IPOHE (100=total damage to plant; 0=no damage to plant) [6] | Control of weed species after post-emergence application, ELEIN (100=total damage to plant; 0=no damage to plant) (Eleusine indica (ELEIN)) | pest or weed control at 500 g/ha [1] | pest or weed control at 500 g/ha [2] | pest or weed control at 500 g/ha (Lolium perenne (LOLPE)) | pest or weed control at 500 g/ha [3] | pest or weed control at 500 g/ha [4] | pest or weed control at 500 g/ha (Setaia fabei (SETFA)) | pest or weed control at 500 g/ha [5] | pest or weed control at 500 g/ha [6] | pest or weed control at 500 g/ha (Eleusine indica (ELEIN))
1 | O=P(O)(O)C[n+]1ccc(-c2ncco2)cn1 [Compound A102] | 90 | 60 | 10 | 100 | 70 | 60 | 90 | 60 | 30 | – | – | – | – | – | – | – | – | –
2 | COc1cc(-c2cc[n+](CCC(=O)O)nc2)sn1 [Compound A33] | – | – | – | – | – | – | – | – | – | 70% | 70% | 30% | 100% | 20% | 30% | 80% | 10% | 50%
3 | O=S(=O)([O-])NCC[n+]1ccc(-c2ncco2)cn1 [Compound A73] | – | – | – | – | – | – | – | – | – | 70% | 70% | 10% | 80% | 50% | 60% | 50% | 30% | 70%
4 | Cn1cnc(-c2cc[n+](CCC(=O)O)nc2)n1 [Compound A51] | – | – | – | – | – | – | – | – | – | 100% | 90% | 60% | 100% | 90% | 90% | 90% | 30% | 70%
5 | CNC(=O)c1coc(-c2cc[n+](CCS(=O)(=O)O)nc2)n1 [Compound A125] | 10 | 60 | 40 | 30 | 60 | 70 | 40 | 10 | 40 | – | – | – | – | – | – | – | – | –
6 | O=S(=O)([O-])CC[n+]1ccc(-c2ncsn2)cn1 [Compound A143] | – | – | – | – | – | – | – | – | – | 90% | 100% | 100% | 100% | 100% | 90% | 100% | 60% | 100%
7 | Cn1cnnc1-c1cc[n+](CCS(=O)(=O)[O-])nc1 [Compound A50] | – | – | – | – | – | – | – | – | – | 100% | 100% | 80% | 100% | 100% | 100% | 100% | 70% | 70%
8 | C=C/N=C(\OC)c1cc[n+](C(C)C(=O)OC)nc1 (stereo not drawn) [Compound A93] | – | – | – | – | – | – | – | – | – | 0% | 50% | 10% | 0% | 30% | 40% | 10% | 20% | 30%
9 | CC(C)c1csc(-c2cc[n+](CCS(=O)(=O)O)nc2)n1 [Compound A23] | 10 | 50 | 40 | 50 | 30 | 40 | 70 | 30 | 60 | – | – | – | – | – | – | – | – | –
10 | O=C(O)CC[n+]1ccc(-c2ccsn2)cn1 [Compound A97] | – | – | – | – | – | – | – | – | – | 80% | 50% | 30% | 100% | 60% | 40% | 50% | 20% | 70%
11 | CCOC(=O)c1oc(-c2cc[n+](CCC(=O)OC)nc2)nc1C [Compound A131] | – | – | – | – | – | – | – | – | – | 0% | 30% | 10% | 10% | 20% | 20% | 10% | 10% | 10%
12 | Cc1nc(-c2cc[n+](CCS(=O)(=O)[O-])nc2)sc1C [Compound A17] | – | – | – | – | – | – | – | – | – | 30% | 50% | 50% | 30% | 40% | 50% | 40% | 30% | 60%
13 | O=S(=O)([O-])CC[n+]1ccc(-c2ccns2)cn1 [Compound A5] | – | – | – | – | – | – | – | – | – | 100% | 60% | 100% | 100% | 70% | 60% | 100% | 70% | 80%
14 | O=S(=O)([O-])OCC[n+]1ccc(-c2ncno2)cn1 [Compound A8, 2-[4-(1,2,4-oxadiazol-5-yl)pyridazin-1-ium-1-yl]ethyl sulfate] | – | – | – | – | – | – | – | – | – | 10% | 50% | 10% | 10% | 50% | 40% | 30% | 30% | 20%
15 | COC(=O)CCC[n+]1ccc(-c2ncn(C)n2)cn1 [Compound A121] | – | – | – | – | – | – | – | – | – | 10% | 60% | 10% | 30% | 100% | 40% | 40% | 10% | 50%
